Measurements: paper PMC10544018 (Journal of Medicinal Chemistry, 2023)

Key:
VCB protein = biological target: T1, VCB protein (Homo sapiens, UniProt P40337); test: Competitive fluorescence polarization (FP) binding assay, displacement of FAM-labeled HIF-1α peptide; settings: for Kd: dissociation constant, determined by FP, mean ± S.E.M., back-calculated from IC50; for IC50: mean IC50 values obtained from the FP assay, read-out: IC50 ± S.E.M, FP assay
T1 construct: A plasmid containing pVHL54–213 with an N-terminal His6 tag; His6 (N, cleaved yes); made in house; host or cells: Escherichia coli BL21 (DE3)
Protocol: Binding of a ligand to the HIF binding site of VHL displaces a fluorescein-labeled, 19-mer HIF-1α oligopeptide, leading to a change in polarization of emitted light upon excitation of the competing fluorescent probe.
All components were dissolved from stock solutions using 100 mM Bis–Tris, 100 mM NaCl, 1 mM DTT, pH 7.0, to yield a final assay volume of 15 μL. DMSO was added as appropriate to ensure a final concentration of 2% (v/v). Control wells containing VCB and JC9 with no compound (zero displacement), or JC9, in the absence of protein (maximum displacement) were also included to allow for normalization. Percentage displacement values were obtained by normalization of controls and were plotted against log[compound]. The IC50 values were determined for each titration using non-linear regression analysis with Prism GraphPad (Table S1). Dissociation constants Kd for the compound–VCB interaction were back-calculated from the measured IC50 values by using a displacement binding model as described.[16],[64]

[1] = Log D7.4 measurement by chromatographic method; format: physicochemical; settings: experimental distribution coefficient at pH 7.4; read-out: e log D7.4
Protocol: (§1) Both were experimentally obtained employing HPLC-based protocols.[39],[40] […] PPB values were determined in view of how they could impact future pharmacokinetic studies of compounds as VHL inhibitors, or once conjugated into bifunctional PROTACs, for which PPB can be a limiting factor.
The determination of the log D7.4 values was performed by a chromatographic method as described previously.[41],[62] […] Subsequently, the mean retention times (n = 2) of the analytes were taken to calculate their log D7.4 values.

human serum albumin = human serum albumin (Homo sapiens, UniProt P02768); test: PPB studies on HSA HPLC column; format: in vitro ADME; settings: CHIRALPAK HSA HPLC column (human serum albumin); experimentally determined percentage of the compound bound to human serum albumin
Protocol: as §1
PPB was estimated by correlating the logarithmic retention times of the analytes on a […] HSA 50 × 3 mm, 5 μm column with the literature-known % PPB values (converted into log K values) of the following drugs: warfarin, ketoprofen, budesonide, nizatidine, indomethacin, acetylsalicylic acid, carbamazepine, piroxicam, nicardipine, and cimetidine.[63] Samples were dissolved in MeCN/DMSO 9:1 to achieve a final concentration of 0.5 mg/mL. The mobile phase A was 50 mM ammonium acetate adjusted to pH 7.4 with 10% NaOH, while mobile phase B was iPrOH. […] After injecting 3 μL of the sample, a linear gradient from 100% A to 30% iPrOH in 5.4 min was applied. From 5.4 to 18 min, 30% iPrOH was kept, followed by switching back to 100% A in 1.0 min and a re-equilibration time of 6 min.

Structure (SMILES)	Kd (VCB protein) [nM]	IC50 (VCB protein) [nM]	chromatographic logD [1]	fraction unbound at 0.5 mg/mL (human serum albumin)
COc1cc(-c2scnc2C)c(OC)cc1CNC(=O)[C@@H]1C[C@@H](O)CN1C(=O)[C@@H](NC(=O)C1(C#N)CC1)C(C)(C)C [Compound 15, (2S,4R)-1-((S)-2-(1-Cyanocyclopropane-1-carboxamido)-3,3-dimethylbutanoyl)-N-(2,5-dimethoxy-4-(4-methylthiazol-5-yl)benzyl)-4-hydroxypyrrolidine-2-carboxamide]	1270 ± 150	6530 ± 428	1.9	0.14
Cc1ncsc1-c1cc(Cl)c(CNC(=O)[C@@H]2C[C@@H](O)CN2C(=O)[C@@H](NC(=O)C2(C#N)CC2)C(C)(C)C)cc1Cl [Compound 17, (2S,4R)-1-((S)-2-(1-Cyanocyclopropane-1-carboxamido)-3,3-dimethylbutanoyl)-N-(2,5-dichloro-4-(4-methylthiazol-5-yl)benzyl)-4-hydroxypyrrolidine-2-carboxamide]	883 ± 68	4560 ± 208	2.5	0.07
Cc1ncsc1-c1ccc(CNC(=O)[C@@H]2C[C@@H](O)CN2C(=O)[C@@H](NC(=O)C2(C#N)CC2)C(C)(C)C)c(C)c1C [Compound 18, (2S,4R)-1-((S)-2-(1-Cyanocyclopropane-1-carboxamido)-3,3-dimethylbutanoyl)-N-(2,3-dimethyl-4-(4-methylthiazol-5-yl)benzyl)-4-hydroxypyrrolidine-2-carboxamide]	322 ± 38	1650 ± 100	2.3	0.09
Cc1ncsc1-c1ccc(CNC(=O)[C@@H]2C[C@@H](O)CN2C(=O)[C@@H](NC(=O)C2(C#N)CC2)C(C)(C)C)c(F)c1F [Compound 19, (2S,4R)-1-((S)-2-(1-Cyanocyclopropane-1-carboxamido)-3,3-dimethylbutanoyl)-N-(2,3-difluoro-4-(4-methylthiazol-5-yl)benzyl)-4-hydroxypyrrolidine-2-carboxamide]	1450 ± 180	7450 ± 624	2.2	0.11
Cc1ncsc1-c1ccc(CNC(=O)[C@@H]2C[C@@H](O)CN2C(=O)[C@@H](NC(=O)C2(C#N)CC2)C(C)(C)C)c(O)c1F [Compound 20, (2S,4R)-1-((S)-2-(1-Cyanocyclopropane-1-carboxamido)-3,3-dimethylbutanoyl)-N-(3-fluoro-2-hydroxy-4-(4-methylthiazol-5-yl)benzyl)-4-hydroxypyrrolidine-2-carboxamide]	141 ± 8	727 ± 7	1.9	0.11
Cc1ncsc1-c1ccc(CNC(=O)[C@@H]2C[C@@H](O)CN2C(=O)[C@@H](NC(=O)C2(C#N)CC2)C(C)(C)C)c2ccccc12 [Compound 22, (2S,4R)-1-((S)-2-(1-Cyanocyclopropane-1-carboxamido)-3,3-dimethylbutanoyl)-4-hydroxy-N-((4-(4-methylthiazol-5-yl)naphthalen-1-yl)methyl)pyrrolidine-2-carboxamide]	397 ± 70	2020 ± 271	2.3	0.07
Cc1ncsc1-c1ccc(CNC(=O)[C@@H]2C[C@@H](O)CN2C(=O)[C@@H](NC(=O)C2(C#N)CC2)C(C)(C)C)c2ncccc12 [Compound 23, (2S,4R)-1-((S)-2-(1-Cyanocyclopropane-1-carboxamido)-3,3-dimethylbutanoyl)-4-hydroxy-N-((5-(4-methylthiazol-5-yl)quinolin-8-yl)methyl)pyrrolidine-2-carboxamide]	330 ± 93	1670 ± 375	1.7	0.12
Cc1cc(-c2scnc2C)ccc1[C@H](C)NC(=O)[C@@H]1C[C@@H](O)CN1C(=O)[C@@H](NC(=O)C1(C#N)CC1)C(C)(C)C [Compound 24, (2S,4R)-1-((S)-2-(1-Cyanocyclopropane-1-carboxamido)-3,3-dimethylbutanoyl)-4-hydroxy-N-((S)-1-(2-methyl-4-(4-methylthiazol-5-yl)phenyl)ethyl)pyrrolidine-2-carboxamide]	86 ± 20	329 ± 51	2.3	0.12
Cc1ncsc1-c1ccc([C@H](C)NC(=O)[C@@H]2C[C@@H](O)CN2C(=O)[C@@H](NC(=O)C2(C#N)CC2)C(C)(C)C)cc1F [Compound 25, (2S,4R)-1-((S)-2-(1-Cyanocyclopropane-1-carboxamido)-3,3-dimethylbutanoyl)-N-((S)-1-(3-fluoro-4-(4-methylthiazol-5-yl)phenyl)ethyl)-4-hydroxypyrrolidine-2-carboxamide]	186 ± 40	718 ± 95	2.2	0.12

The remaining lines, values ahead:

Kd (VCB protein) [nM]	IC50 (VCB protein) [nM]	chromatographic logD [1]	fraction unbound at 0.5 mg/mL (human serum albumin)	Structure (SMILES)
281 ± 46	1440 ± 198	2	0.12	Cc1ncsc1-c1cc(F)c(CNC(=O)[C@@H]2C[C@@H](O)CN2C(=O)[C@@H](NC(=O)C2(C#N)CC2)C(C)(C)C)cc1F [Compound 16, (2S,4R)-1-((S)-2-(1-Cyanocyclopropane-1-carboxamido)-3,3-dimethylbutanoyl)-N-(2,5-difluoro-4-(4-methylthiazol-5-yl)benzyl)-4-hydroxypyrrolidine-2-carboxamide]
80 ± 23	310 ± 65	2.3	0.1	Cc1cc(-c2scnc2C)c(F)cc1CNC(=O)[C@@H]1C[C@@H](O)CN1C(=O)[C@@H](NC(=O)C1(F)CC1)C(C)(C)C [Compound 28, (2S,4R)-N-(5-Fluoro-2-methyl-4-(4-methylthiazol-5-yl)benzyl)-1-((S)-2-(1-fluorocyclopropane-1-carboxamido)-3,3-dimethylbutanoyl)-4-hydroxypyrrolidine-2-carboxamide]
3920 ± 420	15900 ± 934	2.2	0.1	Cc1ncsc1-c1ccc2c(c1)CC[C@@H]2NC(=O)[C@@H]1C[C@@H](O)CN1C(=O)[C@@H](NC(=O)C1(C#N)CC1)C(C)(C)C [Compound 34, (2S,4R)-1-((S)-2-(1-Cyanocyclopropane-1-carboxamido)-3,3-dimethylbutanoyl)-4-hydroxy-N-((S)-5-(4-methylthiazol-5-yl)-2,3-dihydro-1H-inden-1-yl)pyrrolidine-2-carboxamide]
4040 ± 530	16600 ± 2130	2.3	0.1	Cc1ncsc1-c1cc2c(cc1F)[C@@H](NC(=O)[C@@H]1C[C@@H](O)CN1C(=O)[C@@H](NC(=O)C1(C#N)CC1)C(C)(C)C)CC2 [Compound 35, (2S,4R)-1-((S)-2-(1-Cyanocyclopropane-1-carboxamido)-3,3-dimethylbutanoyl)-N-((S)-6-fluoro-5-(4-methylthiazol-5-yl)-2,3-dihydro-1H-inden-1-yl)-4-hydroxypyrrolidine-2-carboxamide]
1040 ± 240	4400 ± 1060	2.6	0.08	Cc1ncsc1-c1cc2c(cc1F)[C@@H](NC(=O)[C@@H]1C[C@@H](O)CN1C(=O)[C@@H](NC(=O)C1(F)CC1)C(C)(C)C)CCC2 [Compound 37, (2S,4R)-N-((S)-7-Fluoro-6-(4-methylthiazol-5-yl)-1,2,3,4-tetrahydronaphthalen-1-yl)-1-((S)-2-(1-fluorocyclopropane-1-carboxamido)-3,3-dimethylbutanoyl)-4-hydroxypyrrolidine-2-carboxamide]
